In patent US8871681B2, “Herbicidal compositions comprising 4-amino-3-chloro-5-fluoro-6-(4-chloro-2-fluoro-3-methoxyphenyl) pyridine-2-carboxylic acid or a derivative thereof and certain sulfonylureas” (Dow AgroSciences LLC, priority 2012, dated 2014):

Experiments:
[1] = test system: VIOTR (Viola tricolor, wild pansy); assay: Post-emergence foliar-applied weed control in cereal crops, greenhouse (Example III); format: in vivo, Viola tricolor (L.)
Protocol: (§1) Seeds of the desired test plant species were planted in Sun Gro MetroMix® 306 planting mixture, which typically has a pH of 6.0 to 6.8 and an organic matter content of about 30 percent, in plastic pots with a surface area of 103.2 square centimeters (cm^2). When required to ensure good germination and healthy plants, a fungicide treatment and/or other chemical or physical treatment was applied. The plants were grown for 7-36 days in a greenhouse with an approximate 14 hour photoperiod which was maintained at about 18° C. during the day and 17° C. during the night. Nutrients and water were added on a regular basis and supplemental lighting was provided with overhead metal halide 1000-Watt lamps as necessary. The plants were employed for testing when they reached the second or third true leaf stage.
(§2) Treatments consisted of the benzyl ester of 4-amino-3-chloro-5-fluoro-6-(4-chloro-2-fluoro-3-methoxy-phenyl)pyridine-2-carboxylic acid (Compound A), formulated as an SC (suspension concentrate), and a second cereal herbicide alone and in combination.
(§3) Measured aliquot of benzyl ester of 4-amino-3-chloro-5-fluoro-6-(4-chloro-2-fluoro-3-methoxy-phenyl)pyridine-2-carboxylic acid (Compound A) was placed in 25 milliliter (mL) glass vials and diluted in a volume of 1.25% (v/v) Agri-dex crop oil concentrated to obtain stock solutions. Compound requirements are based upon a 12 mL application volume at a rate of 187 liters per hectare (L/ha). Spray solutions of the second cereal herbicide and experimental compound mixtures were prepared by adding the stock solutions to the appropriate amount of dilution solution to form 12 mL spray solution with active ingredients in two- and three-way combinations. Formulated compounds were applied to the plant material with an overhead Mandel track sprayer equipped with an 8002E nozzle calibrated to deliver 187 L/ha over an application area of 0.503 square meters (m^2) at a spray height of 18 inches (46 cm) above average plant canopy. Control plants were sprayed in the same manner with the solvent blank.
(§4) The treated plants and control plants were placed in a greenhouse as described above and watered by sub-irrigation to prevent wash-off of the test compounds. After 20-22 days, the condition of the test plants as compared with that of the control plants was determined visually and scored on a scale of 0 to 100 percent where 0 corresponds to no injury and 100 corresponds to complete kill.
(§5) Colby's equation was used to determine the herbicidal effects expected from the mixtures (Colby, S. R. 1967. Calculation of the synergistic and antagonistic response of herbicide combinations. Weeds 15:20-22.).
(§6) The following equation was used to calculate the expected activity of mixtures containing two active ingredients, A and B: Expected=A+B−(A×B/100)

[2] = test system: CIRAR (Cirsium arvense, Canada thistle); assay: as above; format: in vivo, Cirsium arvense (L.) Scop.; conditions: Cirsium arvense, post-emergence, foliar-applied, after 20-22 days, read-out: Weed Control CIRAR Obs
Protocol: as §1, §2, §3, §4, §5, §6

[3] = test system: IPOHE (Ipomoea hederacea, ivyleaf morningglory); assay: Postemergence foliar-applied weed control, direct seeded rice, greenhouse (Example I); format: in vivo, Ipomoea hederacea Jacq.; conditions: 21 DAA
From the text: Seeds or nutlets of the desired test plant species were planted in a soil matrix prepared by mixing a loam or sandy loam soil (e.g., 28.6 percent silt, 18.8 percent clay, and 52.6 percent sand, with a pH of about 5.8 and an organic matter content of about 1.8 percent) and calcareous grit in an 80 to 20 ratio. The soil matrix was contained in plastic pots with a volume of 1 quart and a surface area of 83.6 square centimeters (cm^2). When required to ensure good germination and healthy plants, a fungicide treatment and/or other chemical or physical treatment was applied. The plants were grown for 8-22 days in a greenhouse with an approximate 14 h photoperiod which was maintained at about 29° C. during the day and 26° C. during the night. Nutrients (Peters Excel® 15-5-15 5-Ca 2-Mg and iron chelate) were applied in the irrigation solution as needed and water was added on a regular basis. Supplemental lighting was provided with overhead metal halide 1000-Watt lamps as necessary. The plants were employed for testing when they reached the first through fourth true leaf stage.
Treatments consisted of the acid or esters of 4-amino-3-chloro-5-fluoro-6-(4-chloro-2-fluoro-3-methoxy-phenyl)pyridine-2-carboxylic acid (Compound A), each formulated as an SC, and various herbicidal components alone and in combination. Forms of compound A were applied on an acid equivalent basis.
Other herbicidal components were applied on an active ingredient basis and included acetolactate synthase (ALS)-inhibiting herbicides (sulfonylurea chemical class) azimsulfuron formulated as Gulliver®, bensulfuron-methyl formulated as Londax® 60DF, cyclosulfamuron (technical material), ethoxysulfuron formulated as Sunrice® 15 WDG, flazasulfuron formulated as Katana®, flucetosulfuron formulated as Sukedachi® 1KG G, foramsulfuron formulated as Option®, imazosulfuron formulated as Brazzos® WG, iodosulfuron-methyl-sodium formulated as Hussar®, metsulfuron-methyl formulated as Lorate®, nicosulfuron formulated as Accent®, orthosulfamuron formulated as Strada® WG, primisulfuron-methyl (technical material), propyrisulfuron formulated as Zeta One®, rimsulfuron formulated as Matrix® WG, sulfometuron-methyl formulated as Oust®, and trifloxysulfuron-sodium formulated as Monument® 75WG.
Treatment requirements were calculated based upon the rates being tested, the concentration of active ingredient or acid equivalent in the formulation, and a 12 mL application volume at a rate of 187 L/ha.
For treatments comprised of formulated compounds, measured amounts of compounds were placed individually in 25 mL glass vials and diluted in a volume of 1.25% (v/v) Agri-Dex® crop oil concentrated to obtain 12× stock solutions. […] Application solutions were prepared by adding an appropriate amount of each stock solution (e.g., 1 mL) and diluted to the appropriate final concentrations with the addition of 10 mL of an aqueous mixture of 1.25% (v/v) crop oil concentrate so that the final spray solutions contained 1.25+/−0.05% (v/v) Agrcrop oil concentrate.
For treatments comprised of formulated and technical compounds, weighed amounts of the technical materials were placed individually in 25 mL glass vials and dissolved in a volume of 97:3 v/v acetone/DMSO to obtain 12× stock solutions, and measured amounts of the formulated compounds were placed individually in 25 mL glass vials and diluted in a volume of 1.25% (v/v) crop oil concentrate to obtain 12× stock solutions. […] Application solutions were prepared by adding an appropriate amount of each stock solution (e.g., 1 mL) and diluted to the appropriate final concentrations with the addition of an appropriate amount of an aqueous mixture of 1.5% (v/v) crop oil concentrate so that the final spray solutions contained 1.25% (v/v) crop oil concentrate. […]

[4] = test system: MATCH (Chamomilla chamomilla, scented mayweed); assay: Post-emergence foliar-applied weed control in cereal crops, greenhouse (Example III); format: in vivo, Chamomilla chamomilla (L.) Rydb.
Protocol: as §1, §2, §3, §4, §5, §6

[5] = test system: SIDSP (Sida spinosa, prickly sida); assay: Post-emergence herbicidal activity of mixtures in forage crops, greenhouse (Example IV); format: in vivo, Sida spinosa L.; conditions: Table 58 (forage); foliar-applied; after approximately 21 days; 1.1 gai/ha alone
Protocol: as §1, with “Seeds or root cuttings” for “Seeds”, “126.6” for “103.2”, “14-60” for “7-36”, “approximately 28°” for “about 18°”, “24°” for “17°”, “BBCH13 to BBCH23” for “second or third true”
(§7) Treatments consisted of the benzyl ester of 4-amino-3-chloro-5-fluoro-6-(4-chloro-2-fluoro-3-methoxy-phenyl)pyridine-2-carboxylic acid (Compound A), formulated as a SC, and a second herbicide alone and in combination.
(§8) A measured aliquot of Compound A was placed in 25 milliliter (mL) glass vial and diluted in a volume of 1.25% (v/v) Agri-dex crop oil concentrated to obtain stock solutions. Compound requirements are based upon a 12 mL application volume at a rate of 187 liters per hectare (L/ha). Spray solutions of the second cereal herbicide and experimental compound mixtures were prepared by adding the stock solutions to the appropriate amount of dilution solution to form 12 mL spray solution with active ingredients in two- and three-way combinations. […]
(§9) The treated plants and control plants were placed in a greenhouse as described above and watered by sub-irrigation to prevent wash-off of the test compounds. After approximately 21 days, the condition of the test plants, as compared with that of the control plants, was determined visually and scored on a scale of 0 to 100 percent where 0 corresponds to no injury and 100 corresponds to complete kill. […]

[6] = test system: CASOB (Cassia obtusifolia, sicklepod); assay: as above; format: in vivo, Cassia obtusifolia L.; conditions: Table 58 (forage); foliar-applied; after approximately 21 days; 1.1 gai/ha alone
Protocol: as §1, with “Seeds or root cuttings” for “Seeds”, “126.6” for “103.2”, “14-60” for “7-36”, “approximately 28°” for “about 18°”, “24°” for “17°”, “BBCH13 to BBCH23” for “second or third true”
as §7, §8, §9

[7] = test system: POROL (Portulaca oleracea, portulaca); assay: as above; format: in vivo, Portulaca oleracea L.; conditions: Table 58 (forage); foliar-applied; after approximately 21 days; 1.1 gai/ha alone
Protocol: as §1, with “Seeds or root cuttings” for “Seeds”, “126.6” for “103.2”, “14-60” for “7-36”, “approximately 28°” for “about 18°”, “24°” for “17°”, “BBCH13 to BBCH23” for “second or third true”
as §7, §8, §9

[8] = test system: LAMPU (Lamium purpureum, purple deadnettle); assay: Post-emergence foliar-applied weed control in cereal crops, greenhouse (Example III); format: in vivo, Lamium purpureum (L.); conditions: Table 57, after 20-22 days, 8.75 gai/ha Sulfosulfuron alone
Protocol: as §1, §2, §3, §4, §5, §6

[9] = test system: VERPE (Veronica persica, bird's-eye speedwell); assay: as above; format: in vivo, Veronica persica Poir.; conditions: Table 57, after 20-22 days, 8.75 gai/ha Sulfosulfuron alone
Protocol: as §1, §2, §3, §4, §5, §6

[10] = Table 54, after 20-22 days, 2.5 gai/ha alone

With `COc1nc(C)nc(NC(=O)NS(=O)(=O)c2ccccc2Cl)n1` [Chlorsulfuron] the “Weed Control VIOTR Obs” value ([1]; Table 52, after 20-22 days, 2.2 gai/ha alone) was 70% and the pest or weed control at 2.2 g/ha ([2]; Table 52, 2.2 gai/ha alone) was 78%.
In the case of `COC(=O)c1ccc(I)cc1S(=O)(=O)[N-]C(=O)Nc1nc(C)nc(OC)n1.[Na+]` [Iodosulfuron-methyl sodium, methyl 4-iodo-2-[[[[(4-methoxy-6-methyl-1,3,5-triazin-2-yl)amino]carbonyl]amino]sulfonyl]benzoate, sodium salt, reference compound], the “Visual Weed Control (%) Obs” value ([3]; 2.5 gai/ha) is reported as 90%, the “Visual Weed Control (%) Obs” value ([3]; 5 gai/ha) is reported as 95% and the “Weed Control VIOTR Obs” value [1, 10] is reported as 82%. For the same compound, the pest or weed control at 2.5 g/ha ([2]; Table 54, 2.5 gai/ha alone) was 60% and the “Weed Control MATCH Obs” value [4, 10] was 94%.
In the case of `COC(=O)c1ccccc1S(=O)(=O)NC(=O)Nc1nc(C)nc(OC)n1` [Metsulfuron ME], the “Weed Control SIDSP Obs” value [5] is reported as 52%, the “Weed Control CASOB Obs” value [6] is reported as 8% and the “Weed Control POROL Obs” value [7] is reported as 80%.
In the case of `CCS(=O)(=O)c1nc2ccccn2c1S(=O)(=O)NC(=O)Nc1nc(OC)cc(OC)n1` [Sulfosulfuron], the “Weed Control LAMPU Obs” value [8] is reported as 5%, the “Weed Control VERPE Obs” value [9] is reported as 35% and the pest or weed control at 8.75 g/ha ([2]; Table 57, 8.75 gai/ha Sulfosulfuron alone) is reported as 70%. The “Weed Control MATCH Obs” value ([4]; Table 57, after 20-22 days, 8.75 gai/ha Sulfosulfuron alone) was 95%.
